Experimental data taken from US8889667B2 (Agios Pharmaceuticals, Inc, priority 2010, dated 2014).

Each compound was assayed against PKM2 (Homo sapiens, UniProt P14618) (assay: PKM2 Assay (activation, LDH-coupled, absorbance at 340 nm)). Details: Table 4.
Format: biochemical
Method in brief: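 Human PKM2 (50 ng/well) was preincubated with compound and coupling mix for 30 min at 4 °C without ADP. Reactions were then started with ADP (0.7 mM) alongside PEP 0.15 mM, NADH 180 μM and LDH, in Tris pH 7.5/KCl/MgCl2/DTT/BSA buffer. A340 was followed at 25 °C and activation reported as AC50.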

Chain of PKM2 (P14618 whole entry): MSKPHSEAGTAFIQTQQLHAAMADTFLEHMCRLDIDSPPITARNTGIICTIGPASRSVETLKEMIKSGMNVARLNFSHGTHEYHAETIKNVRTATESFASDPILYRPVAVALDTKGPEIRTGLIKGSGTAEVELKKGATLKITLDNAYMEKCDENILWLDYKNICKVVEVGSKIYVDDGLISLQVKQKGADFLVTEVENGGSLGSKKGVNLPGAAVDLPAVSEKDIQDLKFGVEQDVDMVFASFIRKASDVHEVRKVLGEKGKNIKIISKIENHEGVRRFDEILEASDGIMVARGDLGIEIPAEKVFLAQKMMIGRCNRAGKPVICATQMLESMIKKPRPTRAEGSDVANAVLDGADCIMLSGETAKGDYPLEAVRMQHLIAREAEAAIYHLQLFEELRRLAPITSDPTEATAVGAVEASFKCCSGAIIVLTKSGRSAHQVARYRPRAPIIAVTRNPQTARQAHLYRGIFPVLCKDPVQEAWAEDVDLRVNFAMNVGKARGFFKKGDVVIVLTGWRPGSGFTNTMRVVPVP

| Compound | AC50 |
| --- | --- |
| COc1cccc(CN2CCN(C(=O)c3ccc(NS(=O)(=O)c4cccc5cccnc45)cc3)[C@H](C)C2)c1OC [Compound 130, (R)—N-(4-(4-(2,3-dimethoxybenzyl)-2-methylpiperazine-1-carbonyl)phenyl)quinoline-8-sulfonamide] | < 100 nM |
| N-(4-(3,5-dimethylpiperazine-1-carbonyl)phenyl)quinoline-8-sulfonamide [Compound 104] | 100 to 500 nM |
| CCOC(=O)N1[C@H](C)CN(C(=O)c2ccc(NS(=O)(=O)c3cccc4cccnc34)cc2)C[C@@H]1C [Compound 117, (2S,6R)-ethyl 2,6-dimethyl-4-(4-(quinoline-8-sulfonamido)benzoyl)piperazine-1-carboxylate] | > 20000 nM |
| O=C(c1ccc(NS(=O)(=O)c2cccc3cccnc23)cc1)N1CCN(CC2CC2)C[C@@H]1c1ccccc1 [Compound 180] | 100 to 500 nM |
| CC(c1ccc(F)c(F)c1F)N1CCN(C(=O)c2ccc(NS(=O)(=O)c3cccc4cccnc34)cc2)[C@@H](C)C1 (some centres unmarked) [Compound 173] | 100 to 500 nM |
| C[C@@H]1CN(Cc2ccc(F)c(F)c2F)CCN1C(=O)c1ccc(NS(=O)(=O)c2cccc3cccnc23)cc1 [Compound 118, (R)—N-(4-(2-methyl-4-(2,3,4-trifluorobenzyl)piperazine-1-carbonyl)phenyl)quinoline-8-sulfonamide] | < 100 nM |
| CC(c1cc(F)c(F)cc1F)N1CCN(C(=O)c2ccc(NS(=O)(=O)c3cccc4cccnc34)cc2)[C@H](C)C1 (some centres unmarked) [Compound 168] | 100 to 500 nM |
| O=C(c1ccc(NS(=O)(=O)c2cccc3cccnc23)cc1)N1CC2CCC(C1)N2Cc1ccc(F)cc1 [Compound 219, N-(4-(8-(4-fluorobenzyl)-3,8-diazabicyclo[3.2.1]octane-3-carbonyl)phenyl)quinoline-8-sulfonamide] | 100 to 500 nM |
| CC1CN(Cc2c(F)ccc(F)c2F)CC(C)N1C(=O)c1ccc(NS(=O)(=O)c2cccc3cccnc23)cc1 (centres unmarked) [Compound 199, N-(4-(2,6-dimethyl-4-(2,3,6-trifluorobenzyl)piperazine-1-carbonyl)phenyl)quinoline-8-sulfonamide] | < 100 nM |
| C[C@@H]1CN(C[C@H]2CCCO2)CCN1C(=O)c1ccc(NS(=O)(=O)c2cccc3cccnc23)cc1 [Compound 212, N-(4-((R)-2-methyl-4-(((R)-tetrahydrofuran-2-yl)methyl)piperazine-1-carbonyl)phenyl)quinoline-8-sulfonamide] | < 100 nM |
| C[C@@H]1CN(C(=O)OCCC2CCCC2)CCN1C(=O)c1ccc(NS(=O)(=O)c2cccc3cccnc23)cc1 [Compound 122, (R)-2-Cyclopentylethyl-3-methyl-4-(4-(quinoline-8-sulfonamido)benzoyl)piperazine-1-carboxylate] | < 100 nM |
| O=C1CN(C(=O)c2ccc(NS(=O)(=O)c3cccc4cccnc34)cc2)CCN1Cc1cc(F)cc(F)c1 [Compound 216, N-(4-(4-(3,5-difluorobenzyl)-3-oxopiperazine-1-carbonyl)phenyl)quinoline-8-sulfonamide] | < 100 nM |
| C[C@H]1CN(Cc2cc(F)c(F)c(F)c2)CCN1C(=O)c1ccc(NS(=O)(=O)c2cccc3cccnc23)cc1 [Compound 155, (S)—N-(4-(2-methyl-4-(3,4,5-trifluorobenzyl)piperazine-1-carbonyl)phenyl)quinoline-8-sulfonamide] | < 100 nM |
| C[C@H]1CN(Cc2cc(F)cc(F)c2)CCN1C(=O)c1ccc(NS(=O)(=O)c2cccc3cccnc23)cc1Cl [Compound 179] | 100 to 500 nM |
| CC(C)[C@H]1CN(Cc2ccc(F)cc2)CCN1C(=O)c1ccc(NS(=O)(=O)c2cccc3cccnc23)cc1 [Compound 175] | 1000 to 20000 nM |
| O=C1CN(C(=O)c2ccc(NS(=O)(=O)c3cccc4cccnc34)cc2)CCN1CC1CC1 [Compound 214] | 100 to 500 nM |
| C[C@@H]1CN(CC2CCCO2)CCN1C(=O)c1ccc(NS(=O)(=O)c2cccc3cccnc23)cc1 (stereo partly drawn) [Compound 147, N-(4-((2R)-2-methyl-4-((tetrahydrofuran-2-yl)methyl)piperazine-1-carbonyl)phenyl)quinoline-8-sulfonamide] | < 100 nM |

Same assay, conditions: Table 5

| Compound | AC50 |
| --- | --- |
| O=C(c1ccc(NS(=O)(=O)c2cccc3cccnc23)c(OC(F)(F)F)c1)N1CCN(Cc2ccc(Cl)cc2)CC1 [Compound 338, N-(4-(4-(4-chlorobenzyl)piperazine-1-carbonyl)-2-(trifluoromethoxy)phenyl)quinoline-8-sulfonamide] | 100 to 500 nM |
| O=C(c1ccc(NS(=O)(=O)c2cccc3cccnc23)cn1)N1CCN(CC2CC2)CC1 [Compound 415, N-(6-(4-(cyclopropylmethyl)piperazine-1-carbonyl)pyridin-3-yl)quinoline-8-sulfonamide] | 100 to 500 nM |
| O=C(c1ccc(NS(=O)(=O)c2cccc3cccnc23)cc1)N1CCN(C[C@H]2CCOC2)CC1 [Compound 444, (R)— and (S)—N-(4-(4-((tetrahydrofuran-3-yl)methyl)piperazine-1-carbonyl)phenyl)quinoline-8-sulfonamide] | < 100 nM |
| Cc1cnc(C(=O)N2CCN(C(=O)c3ccc(NS(=O)(=O)c4cccc5cccnc45)cc3)CC2)cn1 [Compound 346, N-(4-(4-(5-methylpyrazine-2-carbonyl)piperazine-1-carbonyl)phenyl)quinoline-8-sulfonamide] | 500 to 1000 nM |
| [2H]C(c1ccc(F)cc1)N1CCN(C(=O)c2ccc(NS(=O)(=O)c3cccc4cccnc34)cc2)CC1 (centres unmarked) [Compound 448, N-(4-(4-(4-fluorobenzyl)piperazine-1-carbonyl)phenyl)quinoline-8-sulfonamide-(D)] | < 100 nM |
| O=C(OCCC1CCCC1)N1CCN(C(=O)c2ccc(NS(=O)(=O)c3cccc4cccnc34)c(OC(F)(F)F)c2)CC1 [Compound 312, 2-cyclopentylethyl-4-(4-(quinoline-8-sulfonamido)-3-(trifluoromethoxy)benzoyl)piperazine-1-carboxylate] | 500 to 1000 nM |
| O=C(c1ccc(NS(=O)(=O)c2cccc3cccnc23)nc1)N1CCN(Cc2ccc(F)cc2)CC1 [Compound 412, N-(5-(4-(4-fluorobenzyl)piperazine-1-carbonyl)pyridin-2-yl)quinoline-8-sulfonamide] | 100 to 500 nM |
| O=C(c1ccc(NS(=O)(=O)c2cccc3cccnc23)c(OC(F)(F)F)c1)N1CCN(CC2CC2)CC1 [Compound 301, N-(4-(4-(cyclopropylmethyl)piperazine-1-carbonyl)-2-(trifluoromethoxy)phenyl)quinoline-8-sulfonamide] | 100 to 500 nM |
| O=C(c1ccc(NS(=O)(=O)c2cccc3cccnc23)nc1)N1CCN(Cc2cc(F)cc(F)c2)CC1 [Compound 413, N-(5-(4-(3,5-difluorobenzyl)piperazine-1-carbonyl)pyridin-2-yl)quinoline-8-sulfonamide] | 100 to 500 nM |
| CC(c1cc(F)c(F)c(F)c1)N1CCN(C(=O)c2ccc(NS(=O)(=O)c3cccc4cccnc34)cc2)CC1 (centres unmarked) [Compound 398, N-(4-(4-(1-(3,4,5-trifluorophenyl)ethyl)piperazine-1-carbonyl)phenyl)quinoline-8-sulfonamide] | 1000 to 20000 nM |
| O=C(c1ccc(NS(=O)(=O)c2cccc3cccnc23)c(OC(F)(F)F)c1)N1CCN(Cc2ncccc2C(F)(F)F)CC1 [Compound 309, N-(2-(trifluoromethoxy)-4-(4-((3-(trifluoromethyl)pyridin-2-yl)methyl)piperazine-1-carbonyl)phenyl)quinoline-8-sulfonamide] | 1000 to 20000 nM |
| O=C(c1ccc(NS(=O)(=O)c2cccc3cccnc23)cc1)N1CCN(C2(c3ccccc3)CC2)CC1 [Compound 330, N-(4-(4-(1-phenylcyclopropyl)piperazine-1-carbonyl)phenyl)quinoline-8-sulfonamide] | < 100 nM |
| COc1cc(NS(=O)(=O)c2cccc3cccnc23)ccc1C(=O)N1CCN(C2(c3ccccc3)CC2)CC1 [Compound 393, N-(3-methoxy-4-(4-(1-phenylcyclopropyl)piperazine-1-carbonyl)phenyl)quinoline-8-sulfonamide] | < 100 nM |
| O=C(c1ccc(NS(=O)(=O)c2cccc3cccnc23)cc1)N1CCN(C(=O)c2cocn2)CC1 [Compound 347, N-(4-(4-(oxazole-4-carbonyl)piperazine-1-carbonyl)phenyl)quinoline-8-sulfonamide] | 100 to 500 nM |
| COc1cccnc1CN1CCN(C(=O)c2ccc(NS(=O)(=O)c3cccc4cccnc34)c(OC(F)(F)F)c2)CC1 [Compound 373, N-(4-(4-((3-methoxypyridin-2-yl)methyl)piperazine-1-carbonyl)-2-(trifluoromethoxy)phenyl)quinoline-8-sulfonamide] | 100 to 500 nM |
| O=C(c1ccc(NS(=O)(=O)c2cccc3cccnc23)c(OC(F)(F)F)c1)N1CCN(Cc2ccc(F)cc2F)CC1 [Compound 369, N-(4-(4-(2,4-difluorobenzyl)piperazine-1-carbonyl)-2-(trifluoromethoxy)phenyl)quinoline-8-sulfonamide] | 500 to 1000 nM |
| O=C(c1ccc(NS(=O)(=O)c2cccc3cccnc23)c(OC(F)(F)F)c1)N1CCN(Cc2cncc(Cl)c2)CC1 [Compound 367, N-(4-(4-((5-chloropyridin-3-yl)methyl)piperazine-1-carbonyl)-2-(trifluoromethoxy)phenyl)quinoline-8-sulfonamide] | 100 to 500 nM |
| COc1cc(NS(=O)(=O)c2cccc3cccnc23)ccc1C(=O)N1CCN(C2(c3ccc(F)cc3)CC2)CC1 [Compound 401, N-(4-(4-(1-(4-fluorophenyl)cyclopropyl)piperazine-1-carbonyl)-3-methoxyphenyl)quinoline-8-sulfonamide] | < 100 nM |
| O=C(c1ccc(NS(=O)(=O)c2cccc3cccnc23)c(OC(F)(F)F)c1)N1CCN(Cc2ccc(Cl)cc2Cl)CC1 [Compound 374, N-(4-(4-(2,4-dichlorobenzyl)piperazine-1-carbonyl)-2-(trifluoromethoxy)phenyl)quinoline-8-sulfonamide] | 500 to 1000 nM |
| O=C(c1ccc(NS(=O)(=O)c2cccc3cccnc23)cc1)N1CCN(C(=O)c2cn[nH]c2)CC1 [Compound 372] | < 100 nM |
| O=C(c1ccc(NS(=O)(=O)c2cccc3cccnc23)c(OC(F)(F)F)c1)N1CCN(C(=O)c2ccccc2F)CC1 [Compound 360] | 100 to 500 nM |
